Values joined by “and” are separate entries in the source; they are usually repeats but may differ in a detail not shown here. Equal values may be shown once. Read-outs that look alike come from different tables or passages of the source.
What was measured:
[1] = molecular target: T1, Human Top1 (HTop1) (Homo sapiens, UniProt P11387); experiment: Plasmid DNA relaxation assay, HTop1; format: biochemical; settings: averages of three experiments, read-out: HTop1 inhibition (EC50)
T1 construct: made in house; host or cells: Sf-9 insect cells infected with recombinant baculovirus (gift from Prof. J. J. Champoux)
T1 sequence (P11387 1-765): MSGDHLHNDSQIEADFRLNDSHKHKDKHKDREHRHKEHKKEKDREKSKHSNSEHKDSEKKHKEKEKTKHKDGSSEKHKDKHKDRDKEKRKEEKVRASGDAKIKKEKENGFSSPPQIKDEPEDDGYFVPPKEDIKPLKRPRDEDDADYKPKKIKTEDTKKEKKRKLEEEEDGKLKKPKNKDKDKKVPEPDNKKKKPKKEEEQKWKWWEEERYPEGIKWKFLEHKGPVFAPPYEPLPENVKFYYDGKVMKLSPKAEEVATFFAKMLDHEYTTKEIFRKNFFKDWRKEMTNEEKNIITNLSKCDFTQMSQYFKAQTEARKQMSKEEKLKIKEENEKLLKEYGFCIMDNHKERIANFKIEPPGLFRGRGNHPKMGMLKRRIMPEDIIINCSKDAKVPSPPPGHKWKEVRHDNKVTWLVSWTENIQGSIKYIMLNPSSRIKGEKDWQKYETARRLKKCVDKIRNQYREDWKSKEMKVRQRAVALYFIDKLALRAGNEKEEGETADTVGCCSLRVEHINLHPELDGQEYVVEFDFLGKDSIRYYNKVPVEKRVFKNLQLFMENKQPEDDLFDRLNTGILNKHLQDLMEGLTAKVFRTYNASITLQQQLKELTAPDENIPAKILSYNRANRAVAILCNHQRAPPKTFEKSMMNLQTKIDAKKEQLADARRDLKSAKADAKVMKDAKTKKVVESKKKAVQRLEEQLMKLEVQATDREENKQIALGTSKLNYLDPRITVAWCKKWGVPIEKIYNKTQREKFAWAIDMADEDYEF
Experimental: (§1) To investigate the inhibitory effect of our library compounds on the DNA relaxation activity of the recombinant Human and Leishmania topoisomerase 1 (Table 2), assays were performed involving supercoiled plasmid DNA, the enzymes (HTop1 and LdTop1) and our molecules. The enzymes were purified by the standard literature procedure.
(§2) The type I DNA topoisomerase are assayed by decreased mobility of the relaxed isomers of supercoiled pBS (SK^+) [pBlue-script (SK^+)] DNA in agarose gel. The relaxation assay was carried out as described previously with LdTop1B and HTop I, diluted in the relaxation buffer (25 mM Tris–HCl, pH 7.5, 5% glycerol, 0.5 mM DTT, 10 mM MgCl2, 50 mM KCl, […] and […] BSA) and supercoiled plasmid pBS (SK^+) DNA (85–95% were negatively supercoiled, with remainder being nicked circles)[9][28][29]. The reconstituted enzyme LdTop1B was assayed at 50 mM KCl concentration as described before. For all kinetic studies, the reaction mixtures containing the buffer and DNA were heated to 37 °C before addition of the enzymes. The reactions were rapidly quenched using stop solution and kept on ice. The gels were stained with ethidium bromide (EtBr) ([…]) and the amount of supercoiled monomer DNA band fluorescence were quantified by integration using Gel Doc 2000 under UV illumination (Bio-Rad Quantity One Software), as described previously.
The wild-type HTop1 (91 kDa) was purified from Sf-9 insect cells infected with the recombinant baculovirus (a kind gift from Prof. J. J. Champoux). Approximately, 1 * 10^9 Sf-9 cells were infected with the recombinant virus, and cells were harvested after 48-h of infection. The cells were lysed and enzyme was purified as described. Briefly, at 48 h post-infection, approximately 3 * 10^9 Sf-9 cells were harvested by centrifugation for 5 min at 400 * g. The cells were resuspended in 1 liter of ice-cold phosphate-buffered saline and centrifuged for 5 min at 400 * g. The nuclei were washed twice in 80 ml of lysis buffer minus Triton X-100 and resuspended in 40 ml of resuspension buffer (50 mM KCl, 10 mM Tris-Cl, pH 7.5, 2 mM MgCl2, 25 mM DTT, 0.4 mg/ml phenylmethylsulfonyl fluoride, 0.12 mg/ml aprotinin). The nuclear extract was stirred for 5 min at ~200 rpm. With continued stirring, 50 ml of polyethylene glycol (PEG) buffer (18% PEG 8000, 1 M NaCl, 10% glycerol) was added dropwise in order to precipitate the DNA. The PEG precipitate was pelleted by centrifugation and the resulting PEG supernatant was dialyzed against 4 liters of potassium phosphate buffer. The dialyzed PEG supernatant passed over a 10-ml bed volume of phosphocellulose (Whatman P11) equilibrated with PPB. The HTop1 flowed through the PS column and then passed over a Mono Q column followed by loaded onto a Mono S column. The Mono S column was eluted with a 25-ml 50–200 mM KPO4, pH 7.4, gradient. […] The peak Mono S fractions were pooled, concentrated with an Amicon ultrafiltration cell, dialyzed into storage buffer (50% glycerol, 10 mM Tris-hydrochloride, pH 7.5, 1 mM DTT, 1 mM EDTA), and stored at −20 °C.

[2] = molecular target: Leishmania donovani Topoisomerase 1 (LdTop1) (Leishmania donovani, UniProt A0A3Q8IHS4+Q8WQM6); experiment: Plasmid DNA relaxation assay, LdTop1 (simultaneous incubation); format: biochemical
Chain of Leishmania donovani Topoisomerase 1 (LdTop1) (Q8WQM6 entry or part of it): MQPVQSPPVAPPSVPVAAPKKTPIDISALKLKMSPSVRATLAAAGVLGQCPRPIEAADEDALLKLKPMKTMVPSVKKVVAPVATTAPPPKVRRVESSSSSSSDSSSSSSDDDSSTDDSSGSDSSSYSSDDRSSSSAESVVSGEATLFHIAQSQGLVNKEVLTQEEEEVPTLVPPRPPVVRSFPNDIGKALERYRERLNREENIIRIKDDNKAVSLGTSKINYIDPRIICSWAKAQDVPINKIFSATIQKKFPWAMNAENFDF
Chain of Leishmania donovani Topoisomerase 1 (LdTop1) (A0A3Q8IHS4 entry or part of it): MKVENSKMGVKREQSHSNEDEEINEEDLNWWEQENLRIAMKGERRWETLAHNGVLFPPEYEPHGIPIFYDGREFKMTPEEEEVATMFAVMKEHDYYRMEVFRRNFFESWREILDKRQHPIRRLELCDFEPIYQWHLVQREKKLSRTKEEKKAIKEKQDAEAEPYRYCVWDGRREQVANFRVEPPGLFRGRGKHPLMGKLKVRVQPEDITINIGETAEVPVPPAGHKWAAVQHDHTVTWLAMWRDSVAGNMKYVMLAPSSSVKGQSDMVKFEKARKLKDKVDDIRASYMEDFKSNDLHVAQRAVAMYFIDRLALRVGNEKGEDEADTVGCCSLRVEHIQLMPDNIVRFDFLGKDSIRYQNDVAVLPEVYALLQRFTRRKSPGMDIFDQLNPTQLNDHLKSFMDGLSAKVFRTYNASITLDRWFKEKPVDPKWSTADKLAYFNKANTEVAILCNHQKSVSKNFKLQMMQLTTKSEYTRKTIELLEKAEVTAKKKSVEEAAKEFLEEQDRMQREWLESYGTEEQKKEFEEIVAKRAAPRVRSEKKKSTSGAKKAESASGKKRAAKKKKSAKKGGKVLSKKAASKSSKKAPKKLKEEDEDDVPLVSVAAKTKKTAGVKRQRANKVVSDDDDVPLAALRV
Experimental: as §1
All the experiments were conducted thrice and representative data from once set of them are expressed as mean ± SD.
as §2
Cells harvested from 1 litre of culture were separately lysed by lysozyme/sonication, and the proteins were purified through Ni-NTA (Ni^2+-nitriloacetate-agarose column (Qiagen, Hilden, Germany) followed by a phospho-cellulose column (P11 cellulose; Whatman, Maidstone Kent, UK) as described previously. Finally, the purified proteins LdTOP1L and LdTOP1S were stored at −70 °C. The concentrations of each protein were quantified by using Bradford Reagent (PIERCE, Thermo Fisher Scientific Inc., Rockford, USA). Purified LdTOP1L was mixed with purified LdTOP1S at a molar ratio of 1:1 to a total protein concentration of 0.5 mg/ml in reconstitution buffer [50 mM potassium phosphate, pH 7.5, 0.5 mM DTT, 1 mM EDTA, 0.1 mM PMSF and 10% (v/v) glycerol]. The mixture was dialyzed overnight at 4 °C and dialyzed fractions were used for plasmid relaxation activity.

[3] = plasmid DNA relaxation, averages of three experiments, read-out: LDTop1 inhibition (EC50)
[4] = LdTop1 relaxation, 12.5 uM, read-out: % inhibition, mean data
[5] = LdTop1 relaxation, 25 uM, read-out: % inhibition, mean data
[6] = LdTop1 relaxation, 50 uM, read-out: % inhibition, mean data
[7] = LdTop1 relaxation, 100 uM, read-out: % inhibition, mean data
[8] = read-out: % inhibition (CPT 100%), data 1, LdTop1 relaxation, 12.5 uM
[9] = read-out: % inhibition (CPT 100%), data 1, LdTop1 relaxation, 25 uM
[10] = read-out: % inhibition (CPT 100%), data 1, LdTop1 relaxation, 50 uM
[11] = read-out: % inhibition (CPT 100%), data 1, LdTop1 relaxation, 100 uM
[12] = read-out: % inhibition (CPT 100%), data 2, LdTop1 relaxation, 12.5 uM
[13] = read-out: % inhibition (CPT 100%), data 2, LdTop1 relaxation, 25 uM
[14] = read-out: % inhibition (CPT 100%), data 2, LdTop1 relaxation, 50 uM
[15] = read-out: % inhibition (CPT 100%), data 2, LdTop1 relaxation, 100 uM
[16] = supplement sheet Ld Top 1 data, concentrations in uM, read-out: EC50 (LdTop1, supplement sheet)

## Cc1cc2c(c(=O)[nH]1)C(=O)O/C2=C\c1c[nH]c2ccccc12 [Compound 5]
[1]
  EC50: > 100 µM
[2]; plasmid DNA relaxation
  LdTop1 inhibitory activity: no inhibitory activity at all
[2]; [3]
  EC50: > 100 µM

## Cc1cc2c(c(=O)[nH]1)C(=O)O/C2=C\c1ccc2c(c1)OCO2 [Compound 6]
[1]
  EC50: > 100 µM
[2]; plasmid DNA relaxation
  LdTop1 inhibitory activity: complete loss of activity
[2]; [3]
  EC50: > 100 µM

## Cc1cc2c(c(=O)[nH]1)C(=O)O/C2=C\c1cccc2ccccc12 [Compound 11]
[1]
  EC50: > 100 µM
[2]; plasmid DNA relaxation
  LdTop1 inhibitory activity: no inhibitory activity at all
[2]; [3]
  EC50: > 100 µM

## Cc1cc2c(c(=O)[nH]1)C(=O)O/C2=C\c1ccc(Br)cc1 [Compound 10]
[1]
  EC50: > 100 µM
[2]; [3]
  EC50: > 100 µM

## Cc1cc2c(c(=O)[nH]1)C(=O)O/C2=C\c1ccc(F)c(F)c1 [Compound 8]
[1]
  EC50: > 100 µM
[2]; plasmid DNA relaxation
  LdTop1 inhibitory activity: complete loss of activity
[2]; [3]
  EC50: > 100 µM

## CC/C=C1\OC(=O)c2c1cc(C)[nH]c2=O [Compound 16]
[1]
  EC50: > 100 µM
[2]; plasmid DNA relaxation
  LdTop1 inhibitory activity: no inhibitory activity at all
[2]; [3]
  EC50: > 100 µM

## Cc1cc2c(c(=O)[nH]1)C(=O)O/C2=C\c1cccc(Br)c1 [Compound 9]
[1]
  EC50: > 100 µM
[2]; [4]
  inhibition at 12.5 µM: 52.2%
[2]; [5]
  inhibition at 25 µM: 68.2%
[2]; [6]
  inhibition at 50 µM: 88.4%
[2]; [7]
  inhibition at 100 µM: 93%
[2]; plasmid DNA relaxation
  LdTop1 inhibitory activity: considerable activity
[2]; [3]
  EC50: 7.51 ± 1.02 µM
[2]; [8]
  inhibition at 12.5 µM: 52.9%
[2]; [9]
  inhibition at 25 µM: 69.6%
[2]; [10]
  inhibition at 50 µM: 89.7%
[2]; [11]
  inhibition at 100 µM: 95.5%
[2]; [12]
  inhibition at 12.5 µM: 51.4%
[2]; [13]
  inhibition at 25 µM: 66.8%
[2]; [14]
  inhibition at 50 µM: 87.2%
[2]; [15]
  inhibition at 100 µM: 90.5%
[2]; [16]
  EC50: 7.51 µM

## COc1ccc(/C=C2\OC(=O)c3c2cc(C)[nH]c3=O)c(C)c1C [Compound 2]
[1]
  EC50: > 100 µM
[2]; [4]
  inhibition at 12.5 µM: 50.1%
[2]; [5]
  inhibition at 25 µM: 65.2%
[2]; [6]
  inhibition at 50 µM: 85.1%
[2]; [7]
  inhibition at 100 µM: 99.5%
[2]; plasmid DNA relaxation
  LdTop1 inhibitory activity: considerable activity
[2]; [3]
  EC50: 10 µM and 10.1 µM
[2]; [8]
  inhibition at 12.5 µM: 50.1%
[2]; [9]
  inhibition at 25 µM: 66.8%
[2]; [10]
  inhibition at 50 µM: 85.8%
[2]; [11]
  inhibition at 100 µM: 100%
[2]; [12]
  inhibition at 12.5 µM: 50.1%
[2]; [13]
  inhibition at 25 µM: 63.7%
[2]; [14]
  inhibition at 50 µM: 84.4%
[2]; [15]
  inhibition at 100 µM: 98.9%
[2]; [16]
  EC50: 10.2 µM

## Cc1cc2c(c(=O)[nH]1)C(=O)O/C2=C\c1ccccc1Cl [Compound 21]
[1]
  EC50: > 100 µM
[2]; [3]
  EC50: > 100 µM

## COc1cccc(/C=C2\OC(=O)c3c2cc(C)[nH]c3=O)c1OC [Compound 12]
[1]
  EC50: > 100 µM
[2]; plasmid DNA relaxation
  LdTop1 inhibitory activity: inactive
[2]; [3]
  EC50: > 100 µM

## Cc1cc2c(c(=O)[nH]1)C(=O)O/C2=C\c1ccccc1Br [Compound 20]
[1]
  EC50: > 100 µM
[2]; [3]
  EC50: > 100 µM

## Cc1cc2c(c(=O)[nH]1)C(=O)O/C2=C\c1cccc(Cl)c1 [Compound 14]
[1]
  EC50: > 100 µM
[2]; LdTop1 relaxation, 12.5 uM
  % inhibition (CPT 100%), data 1: 32.026%
[2]; [4]
  inhibition at 12.5 µM: 30.6%
[2]; LdTop1 relaxation, 25 uM
  % inhibition (CPT 100%), data 1: 46.8807%
[2]; [5]
  inhibition at 25 µM: 48.1%
[2]; LdTop1 relaxation, 50 uM
  % inhibition, mean data: 61.4846%
[2]; [6]
  inhibition at 50 µM: 61.5%
[2]; LdTop1 relaxation, 100 uM
  % inhibition (CPT 100%), data 1: 88.2434%
  % inhibition (CPT 100%), data 2: 86.2086%
  % inhibition, mean data: 87.226%
[2]; [7]
  inhibition at 100 µM: 87.2%
[2]; plasmid DNA relaxation
  LdTop1 inhibitory activity: considerable activity
[2]; [8]
  inhibition at 12.5 µM: 32%
[2]; [9]
  inhibition at 25 µM: 46.9%
[2]; [10]
  inhibition at 50 µM: 58.6%
[2]; [11]
  inhibition at 100 µM: 88.2%
[2]; [12]
  inhibition at 12.5 µM: 29.1%
[2]; [13]
  inhibition at 25 µM: 49.4%
[2]; [14]
  inhibition at 50 µM: 64.3%
[2]; [15]
  inhibition at 100 µM: 86.2%
[2]; [16]
  EC50: 35.6 µM

## Cc1cc2c(c(=O)[nH]1)C(=O)O/C2=C\c1ccccc1 [Compound 13]
[1]
  EC50: > 100 µM
[2]; [3]
  EC50: > 100 µM
